Drawing on PubChem BioAssay (NCI), this text covers TGI for eleven compounds.

Some test systems named below: A498 renal; HL-60(TB) leukemia; HT29 colon; IGROV1 ovarian; MALME-3M melanoma; NCI-H460 lung; NCI-H522 lung; SK-MEL-5 melanoma; SK-OV-3 ovarian; SN12C renal; TK-10 renal; HOP-62 NSCLC; MOLT-4 leukemia; HS 578T breast.
Experiment in all cases: inhibition of tumour cell growth, NCI panel, 48 h

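A five-concentration, 48-hour dose response in 96-well plates underlies each endpoint, interpolated linearly between surrounding concentrations. TGI: concentration producing complete growth inhibition.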

Take `Nc1nc2c(ncn2CCOC(c2ccccc2)P(=O)(O)O)c(=O)[nH]1` (stereo unspecified): the TGI in the experiment with A498 renal, in the experiment on HL-60(TB) leukemia, with HT29 colon, in the experiment with IGROV1 ovarian, in the experiment with MALME-3M melanoma and in the experiment on NCI-H460 lung was above 100 µM each time. For the same compound, the TGI in the experiment on NCI-H522 lung, with SK-MEL-5 melanoma, in the experiment with SK-OV-3 ovarian, in the experiment on SN12C renal and in the experiment with TK-10 renal was above 100 µM throughout.

Consider `CN(C)CCNCc1c2ccccc2c(CNCCN(C)C)c2ccccc12`, for which the TGI is 55.9 µM with A498 renal; 46.8 µM with HL-60(TB) leukemia; 75.5 µM with HOP-62 NSCLC; 40.6 µM with HT29 colon; above 69.4 µM in the experiment on IGROV1 ovarian; 35.4 µM in the experiment with MALME-3M melanoma. In addition, the TGI with MOLT-4 leukemia was 8.31 µM; in the experiment with NCI-H460 lung it was above 100 µM; with NCI-H522 lung, above 100 µM; with SK-MEL-5 melanoma, 17.9 µM; with SK-OV-3 ovarian, 42.5 µM; in the experiment on SN12C renal it was above 100 µM.

`Cc1cccc(-c2cc(=O)c3ccc(C)nc3[nH]2)c1`: the TGI in the experiment on A498 renal was above 51.1 µM; in the experiment with HL-60(TB) leukemia, 0.526 µM; in the experiment on HOP-62 NSCLC, above 100 µM; in the experiment on HT29 colon, 1.82 µM; with IGROV1 ovarian it was above 100 µM; in the experiment on MALME-3M melanoma it was above 100 µM. Besides, the TGI with MOLT-4 leukemia was above 80.6 µM; with NCI-H460 lung, 19.5 µM; with NCI-H522 lung, 0.75 µM; in the experiment with SK-MEL-5 melanoma, 15.4 µM; in the experiment on SK-OV-3 ovarian, above 100 µM; in the experiment with SN12C renal, above 100 µM. Further, the TGI in the experiment with TK-10 renal was above 84.6 µM.

With `O=c1nc2n(cc1/C=C\Br)C1CC(O)C(CO2)O1` (stereo unspecified), the TGI was above 100 µM in the experiment on A498 renal; 54.8 µM in the experiment with HL-60(TB) leukemia; above 100 µM in the experiment on HOP-62 NSCLC; above 100 µM with HT29 colon; above 100 µM with IGROV1 ovarian; above 100 µM in the experiment on MALME-3M melanoma. Also, the TGI in the experiment on MOLT-4 leukemia, in the experiment with NCI-H460 lung, in the experiment with SK-MEL-5 melanoma, in the experiment with SK-OV-3 ovarian, in the experiment with SN12C renal and in the experiment on TK-10 renal was above 100 µM throughout.

On to `CCN1/C(=C/c2ccc3ccccc3[n+]2CC)C=Cc2ccccc21`, for which the TGI in the experiment with A498 renal turned out to be 15 µM; in the experiment with HOP-62 NSCLC it was 13.9 µM; in the experiment on HS 578T breast, 12.5 µM; with HT29 colon it was 11 µM; in the experiment with IGROV1 ovarian it was 16.4 µM; in the experiment on MALME-3M melanoma, 6.89 µM. Also, the TGI in the experiment with MOLT-4 leukemia is above 33.9 µM; with NCI-H460 lung it was 4.95 µM; in the experiment with NCI-H522 lung, 4.64 µM; with SK-MEL-5 melanoma it was 3.77 µM; in the experiment on SN12C renal, 12.8 µM; with TK-10 renal it was 26.4 µM.

With `COc1ccc(/C(Cl)=C(\C=O)c2ccc(F)cc2)cc1`, the TGI in the experiment with A498 renal stood at 52.7 µM; in the experiment with HL-60(TB) leukemia, 9.12 µM; in the experiment on HOP-62 NSCLC, 59.3 µM; in the experiment on HT29 colon, 27.8 µM; in the experiment on IGROV1 ovarian it was 53.6 µM; in the experiment on MALME-3M melanoma, 48 µM. The TGI in the experiment with MOLT-4 leukemia amounted to 50.9 µM; with NCI-H460 lung it was 20.1 µM; with NCI-H522 lung, 24.8 µM; in the experiment with SK-MEL-5 melanoma it was 27.9 µM; in the experiment with SK-OV-3 ovarian, 77.1 µM; in the experiment on SN12C renal, 64.7 µM. Further, the TGI in the experiment on TK-10 renal was above 100 µM.

`O=C(CCCCCCCCC(=O)NN1C(=O)/C(=C\c2ccc(O)c(O)c2)SC1c1c(O)ccc2ccccc12)NN1C(=O)C(=Cc2ccc(O)c(O)c2)SC1c1c(O)ccc2ccccc12` (stereo unspecified): the TGI in the experiment on A498 renal is 75.9 µM; in the experiment on HOP-62 NSCLC, above 36.8 µM; in the experiment on HT29 colon, above 100 µM; with IGROV1 ovarian, above 55.5 µM; with MALME-3M melanoma, 74 µM; with MOLT-4 leukemia, above 29.8 µM. Moreover, the TGI is above 100 µM in the experiment with NCI-H460 lung; 30.7 µM with NCI-H522 lung; 19.4 µM with SK-MEL-5 melanoma; above 86.8 µM in the experiment on SK-OV-3 ovarian; above 87.4 µM with SN12C renal; above 100 µM in the experiment with TK-10 renal.

With `CC1(C)OCC2OC3([C@H](O)CCO)OC(C)(C)OC3C2O1` (stereo partly specified), the TGI in the experiment with A498 renal, with HOP-62 NSCLC, in the experiment with HT29 colon, in the experiment with IGROV1 ovarian, in the experiment on MOLT-4 leukemia and with NCI-H460 lung was above 100 µM throughout. In addition, the TGI in the experiment with SK-MEL-5 melanoma and with SN12C renal was above 100 µM in each case.

With `O=C(CSc1nnc(Cc2ccccc2)o1)Nc1ccc(Cl)cc1`, the TGI in the experiment on A498 renal, in the experiment on HL-60(TB) leukemia, in the experiment with HOP-62 NSCLC, in the experiment on HT29 colon, in the experiment with IGROV1 ovarian and with MALME-3M melanoma was above 100 µM in each case. Also, the TGI in the experiment on MOLT-4 leukemia, with NCI-H460 lung, in the experiment with NCI-H522 lung, in the experiment on SK-MEL-5 melanoma, in the experiment with SK-OV-3 ovarian and in the experiment with SN12C renal was above 100 µM in each case. In the experiment on TK-10 renal, this compound yielded a TGI above 100 µM.

As to `O=[N+]([O-])c1ccc(/C=C/c2ccc(N=Nc3ccc(/C=C/c4ccc([N+](=O)[O-])cc4S(=O)(=O)O)c(S(=O)(=O)O)c3)cc2S(=O)(=O)O)c(S(=O)(=O)O)c1`, the TGI in the experiment on A498 renal, in the experiment on HL-60(TB) leukemia, with HOP-62 NSCLC, with HT29 colon, in the experiment on IGROV1 ovarian and in the experiment on MALME-3M melanoma was above 100 µM throughout. Also, the TGI with MOLT-4 leukemia, in the experiment on NCI-H460 lung, in the experiment with NCI-H522 lung, in the experiment on SK-MEL-5 melanoma, in the experiment on SK-OV-3 ovarian and in the experiment with SN12C renal was above 100 µM each time.

For the compound `CC1=C(C(=O)OCCO[N+](=O)[O-])C(c2ccccc2C(F)(F)F)C(C(=O)OC(C)C)=C(C)N1` (stereo unspecified), the TGI was 60.6 µM in the experiment on A498 renal; above 100 µM with HL-60(TB) leukemia; 45.8 µM in the experiment on HOP-62 NSCLC; 36.3 µM in the experiment on HT29 colon; 42.8 µM in the experiment with IGROV1 ovarian; 58.1 µM in the experiment with MALME-3M melanoma. For the same compound, the TGI in the experiment with MOLT-4 leukemia is above 100 µM; with NCI-H460 lung it was 58.6 µM; in the experiment with NCI-H522 lung, 44.4 µM; in the experiment on SK-MEL-5 melanoma it was 22.1 µM; in the experiment on SK-OV-3 ovarian, above 100 µM; in the experiment on SN12C renal it was 36.8 µM. For the same compound, the TGI in the experiment with TK-10 renal turned out to be 77.4 µM.
